Measured values taken from US8987195B2 (priority 2012, dated 2015).
Read-outs that look alike come from different tables or passages of the source.

What was measured:
[1] = target: HCV NS3/4A protease genotype 1b (Hepatitis C virus genotype 1b, UniProt P26663); assay: HCV NS3/4A protease time-resolved fluorescence (TRF) assay, Ki against genotype 1b; format: biochemical; conditions: IC50 [gt-1b] (nM), NS3/4A genotype 1b, enzyme 0.2 nM
In short: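 Enzyme was pre-incubated 30 min with inhibitor in HEPES pH 7.5 buffer (150 mM NaCl, 15% glycerol, 10 mM DTT). Reaction ran 2.5 h at room temperature with 25 nM europium TRF peptide substrate, read at ex 340/em 615 nm. Enzyme levels: 0.2 nM (1b), 0.4 nM (A156T), 0.025 nM (3a). Ki came from four-parameter IC50 via IC50=Ki(1+[S]/KM).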

[2] = test system: HCV genotype 1b replicon; assay: HCV replicon assay, genotype 1b replicon EC50; format: cell-based, Hepatitis C virus; conditions: Hepatitis C virus, genotype 1b replicon, read-out: EC50 [gt-1b]
In short: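 Readout was replicon RNA copy number, by 32P-probe protection or TaqMan normalized to cellular cyclophilin A RNA, or luciferase activity for luciferase:Neo^r fusion lines. Cells were exposed to serially diluted compound for 24-48 hours without G418, then washed and lysed. EC50 derived from four-parameter fit relative to DMSO.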

Cc1nc2c(F)cccc2c2c1O[C@]1(CC2)C[C@H]2C(=O)NC3(C(=O)NS(=O)(=O)C4(C)CC4)C[C@H]3/C=C\CCCCC[C@H](NC(=O)OC(C)(C)C)C(=O)N2C1 (stereo partly drawn) [Example 45, tert-Butyl (1aR,3aS,3′R,9S,16aS,Z)-7′-fluoro-5′-methyl-1a-(1-methylcyclopropylsulfonylcarbamoyl)-3,8-dioxo-1a,1′,2,2′,3,3a,4,6,8,9,10,11,12,13,14,16a-hexadecahydro-1H-spiro[cyclopropa[e]pyrrolo[1,2-a][1,4]diazacyclopentadecine-5,3′-pyrano[2,3-c]quinoline]-9-ylcarbamate]
IC50 [1]: 0.011 nM | EC50 [2]: 1.1 nM

COc1ccc2nc(C3CCC3)c3c(c2c1)CC[C@]1(C[C@H]2C(=O)NC4(C(=O)NS(=O)(=O)C5(C)CC5)C[C@H]4/C=C\CCCCC[C@H](NC(=O)OC(C)(C)C)C(=O)N2C1)O3 (stereo partly drawn) [Example 46, tert-Butyl (1aR,3aS,3′R,9S,16aS,Z)-5′-cyclobutyl-9′-methoxy-1a-(1-methylcyclopropylsulfonylcarbamoyl)-3,8-dioxo-1a,1′,2,2′,3,3a,4,6,8,9,10,11,12,13,14,16a-hexadecahydro-1H-spiro[cyclopropa[e]pyrrolo[1,2-a][1,4]diazacyclopentadecine-5,3′-pyrano[2,3-c]quinoline]-9-ylcarbamate]
IC50 ([1]; K+ salt): 0.02 nM | EC50 ([2]; K+ salt): 0.4 nM

Cc1nc2ccccc2c2c1O[C@]1(CC2)C[C@H]2C(=O)N[C@]3(C(=O)NS(=O)(=O)C4(C)CC4)C[C@H]3/C=C\CCCCC[C@H](NC(=O)OC(C)(C)C(F)(F)F)C(=O)N2C1 [Example 47]
IC50 [1]: 0.011 nM | EC50 ([2]; GETYPE1B|GT1B): 3.72 nM

COc1ccc2nc(CC(F)(F)F)c3c(c2c1)CC[C@]1(C[C@H]2C(=O)N[C@]4(C(=O)NS(=O)(=O)C5(C)CC5)C[C@H]4/C=C\CCCCC[C@H](NC(=O)OCC(C)(C)C)C(=O)N2C1)O3 [Example 48, Neopentyl((2R,6S,13aS,14aR,16aS,Z)-9′-methoxy-14a-(((1-methylcyclopropyl)sulfonyl)carbamoyl)-5,16-dioxo-5′-(2,2,2-trifluoroethyl)-1′,2′,3,5,6,7,8,9,10,11, 13a,14,14a,15,16,16a-hexadecahydro-1H-spiro[cyclopropa[e]pyrrolo[1,2-a][1,4]diazacyclopentadecine-2,3′-pyrano[2,3-c]quinolin]-6-yl)carbamate]
IC50 [1]: 0.006 nM | EC50 [2]: 1.1 nM

COCCCOc1ccc2nc(C(F)(F)F)c3c(c2c1)CC[C@]1(C[C@H]2C(=O)N[C@]4(C(=O)NS(=O)(=O)C5(C)CC5)C[C@H]4/C=C\CCCCC[C@H](NC(=O)OC(C)(C)C)C(=O)N2C1)O3 [Example 51, tert-Butyl ((2R,6S,13aS,14aR,16aS,Z)-9′-(3-methoxypropoxy)-14a-(((1-methylcyclopropyl)sulfonyl)carbamoyl)-5,16-dioxo-5′-(trifluoromethyl)-1′,2′,3,5,6,7,8,9,10,11,13a, 14,14a,15,16,16a-hexadecahydro-1H-spiro[cyclopropa[e]pyrrolo[1,2-a][1,4]diazacyclopentadecine-2,3′-pyrano[2,3-c]quinolin]-6-yl)carbamate]
IC50 ([1]; K+ salt): 0.011 nM | EC50 ([2]; K+ salt): 0.246 nM

COc1ccc2nc(C(F)(F)F)c3c(c2c1)[C@H](O)C[C@]1(C[C@H]2C(=O)N[C@]4(C(=O)NS(=O)(=O)C5(C)CC5)C[C@H]4/C=C\CCCCC[C@H](NC(=O)OC(C)(C)C)C(=O)N2C1)O3 [Example 54, tert-Butyl [(1′R,2S,6S,12Z,13aS,14aR,16aS)-1′-hydroxy-9′-methoxy-14a-{[(1-methylcyclopropyl)sulfonyl]carbamoyl}-5,16-dioxo-5′-(trifluoromethyl) -1,1′,2′,5,6,7,8,9,10,11,13a,14,14a,15,16,16a-hexadecahydrospiro[cyclopropa[e]pyrrolo[1,2-a][1,4]diazacyclopentadecine-2,3′-pyrano[2,3-c]quinolin]-6-yl]carbamate]
IC50 [1]: 0.012 nM | EC50 [2]: 1.18 nM

COc1ccc2nc(C(F)(F)F)c3c(c2c1)[C@@H](O)C[C@]1(C[C@H]2C(=O)N[C@]4(C(=O)NS(=O)(=O)C5(C)CC5)C[C@H]4/C=C\CCCCC[C@H](NC(=O)OC(C)(C)C)C(=O)N2C1)O3 [Example 55, tert-Butyl [(1′S,2S,6S,12Z,13aS,14aR,16aS)-1′-hydroxy-9′-methoxy-14a-{[(1-methylcyclopropyl)sulfonyl]carbamoyl}-5,16-dioxo-5′-(trifluoromethyl) -1,1′,2′,5,6,7,8,9,10,11,13a,14,14a,15,16,16a-hexadecahydrospiro[cyclopropa[e]pyrrolo[1,2-a][1,4]diazacyclopentadecine-2,3′-pyrano[2,3-c]quinolin]-6-yl]carbamate]
IC50 [1]: 0.007 nM | EC50 [2]: 0.578 nM

COc1ccc2nc(C)c3c(c2c1)[C@H](F)C[C@]1(C[C@H]2C(=O)N[C@]4(C(=O)NS(=O)(=O)C5(C)CC5)C[C@H]4/C=C\CCCCC[C@H](NC(=O)OC(C)(C)C)C(=O)N2C1)O3 [Example 56, tert-Butyl ((1′R,2S,6S,13aS,14aR,16aS,Z)-1′-fluoro-9′-methoxy-5′-methyl-14a-(((1-methylcyclopropyl)sulfonyl)carbamoyl)-5,16-dioxo-1′,2′,3,5,6,7,8,9,10,11,13a,14,14a, 15,16,16a-hexadecahydro-1H-spiro[cyclopropa[e]pyrrolo[1,2-a][1,4]diazacyclopentadecine-2,3′-pyrano[2,3-c]quinolin]-6-yl)carbamate]
IC50 ([1]; K+ salt): 0.008 nM | EC50 ([2]; K+ salt): 1.66 nM

COc1ccc2nc(C)c3c(c2c1)CC[C@]1(C[C@H]2C(=O)N[C@]4(C(=O)NS(=O)(=O)C5(C)CC5)C[C@H]4/C=C\CCCCC[C@H](Nc4ncccn4)C(=O)N2C1)O3 [Example 57, (2R,6S,13aS,14aR,16aS,Z)-9′-methoxy-5′-methyl-N-((1-methylcyclopropyl)sulfonyl)-5,16-dioxo-6-(pyrimidin-2-ylamino)-1′,2′,3,5,6,7,8,9,10,11,13a,14,14a,15,16,16a-hexadecahydro-1H-spiro[cyclopropa[e]pyrrolo[1,2-a][1,4]diazacyclopentadecine-2,3′-pyrano[2,3-c]quinoline]-14a-carboxamide]
IC50 [1]: 0.137 nM | EC50 [2]: 9.23 nM

Cc1nc2ccc(C#N)cc2c2c1O[C@]1(CC2)C[C@H]2C(=O)N[C@]3(C(=O)NS(=O)(=O)C4(C)CC4)C[C@H]3/C=C\CCCCC[C@H](NC(=O)OC(C)(C)C)C(=O)N2C1 [Example 59, tert-Butyl ((2R,6S,13aS,14aR,16aS,Z)-9′-cyano-5′-methyl-14a-(((1-methylcyclopropyl)sulfonyl)carbamoyl)-5,16-dioxo-1′,2′,3,5,6,7,8,9,10,11,13a,14,14a,15,16,16a-hexadecahydro-1H-spiro[cyclopropa[e]pyrrolo[1,2-a][1,4]diazacyclopentadecine-2,3′-pyrano[2,3-c]quinolin]-6-yl)carbamate]
IC50 [1]: 0.019 nM | EC50 [2]: 3.45 nM

CC(C)(C)OC(=O)N[C@H]1CCCCC/C=C\[C@@H]2C[C@@]2(C(=O)NS(=O)(=O)C2(C)CC2)NC(=O)[C@@H]2C[C@]3(CCc4c(c(C(F)(F)F)nc5ccc(OCCO)cc45)O3)CN2C1=O [Example 60, tert-Butyl ((2R,6S,13aS,14aR,16aS,Z)-9′-(2-hydroxyethoxy)-14a-(((1-methylcyclopropyl)sulfonyl)carbamoyl)-5,16-dioxo-5′-(trifluoromethyl)-1′,2′,3,5,6,7,8,9,10,11,13a, 14,14a,15,16,16a-hexadecahydro-1H-spiro[cyclopropa[e]pyrrolo[1,2-a][1,4]diazacyclopentadecine-2,3′-pyrano[2,3-c]quinolin]-6-yl)carbamate]
IC50 [1]: 0.009 nM | EC50 [2]: 1.23 nM

Cc1nc2ccccc2c2c1O[C@]1(CC2)C[C@H]2C(=O)N[C@]3(C(=O)NS(=O)(=O)C4(C)CC4)C[C@H]3/C=C\CCCCC[C@H](NC(=O)N3CCCC3)C(=O)N2C1 [Example 61, (2R,6S,12Z,13aS,14aR,16aS)-5′-methyl-N-[(1-methylcyclopropyl)sulfonyl]-5,16-dioxo-6-[(pyrrolidin-1-ylcarbonyl)amino]-1,1′,2′,6,7,8,9,10,11,13a,14,15,16,16a-tetradecahydrospiro[cyclopropa[e]pyrrolo[1,2-a][1,4]diazacyclopentadecine-2,3′-pyrano[2,3-c]quinoline]-14a(5H)-carboxamide]
IC50 [1]: 0.015 nM | EC50 [2]: 12.2 nM

COc1ccc2nc(C(F)(F)F)c3c(c2c1)C=C[C@]1(CN2C(=O)[C@@H](NC(=O)OC(C)(C)C)CCCCC/C=C\[C@@H]4C[C@@]4(C(=O)NS(=O)(=O)C4(C)CC4)NC(=O)[C@@H]2C1C)O3 (stereo partly drawn) [Example 62, tert-Butyl ((2S,6S,13aS,14aR,16aS,Z)-9′-methoxy-1-methyl-14a-(((1-methylcyclopropyl)sulfonyl)carbamoyl)-5,16-dioxo-5′-(trifluoromethyl)-3,5,6,7,8,9,10,11,13a, 14,14a,15,16,16a-tetradecahydro-1H-spiro[cyclopropa[e]pyrrolo[1,2-a][1,4]diazacyclopentadecine-2,3′-pyrano[2,3-c]quinolin]-6-yl)carbamate]
IC50 [1]: 0.016 nM | EC50 [2]: 0.26 nM
